{"source": "patent US4316891A", "about": "“Extended N-terminal somatostatin” (The Salk Institute for Biological Studies, priority 1980, dated 1982)", "key": {"[1]": {"test_system": "secretion of growth hormone", "experiment": "in vivo inhibition of growth hormone secretion stimulated by morphine in rats", "settings": "in words", "protocol": "(§1) The statistical analysis of the results is carried out generally in accordance with the EXBIOL program reported in the article by Sakiz, Excerpta Medica, Int. Cong. Ser. No. 83 (1964), pp. 225-229."}, "[2]": {"test_system": "cells of rat pituitary glands", "experiment": "in vitro inhibition of basal growth hormone secretion in rat pituitary cell cultures, side-by-side with somatostatin", "assay_type": "cell-based", "settings": "substantially pure peptide, in words", "protocol": "To determine the effectiveness of the peptides to inhibit the release of growth hormone, in vitro assays are carried out using both somatostatin-28and somatostatin-25 in side-by-side comparison with equimolar concentrations of somotostatin having a known effectiveness to inhibit the release of growth hormone by pituitary cells. Cultures are used which include cells of rat pituitary glands removed some four to five days previously. Both cultures of a defined standard medium and cultures which are considered optimal for the secretion of growth hormone, as a result of having additions of either 2% or 10% of serum from a foetal calf, are used for the comparative testing between either somatostatin and somatostatin-28 or between somatostatin and somatostatin-25.\nas §1"}, "[3]": {"settings": "juvenile-type diabetics, complete absence of circulating insulin; cited from earlier work"}}, "note": "Where a SMILES comes first, the peptide text is derived from it. Bridges are numbered along the chain shown (N, C = ends).", "data": [{"molecule": "CSCC[C@H](NC(=O)[C@H](C)NC(=O)[C@@H]1CCCN1C(=O)[C@H](CC(N)=O)NC(=O)[C@@H](N)CO)C(=O)N[C@@H](C)C(=O)N1CCC[C@H]1C(=O)N[C@@H](CCCNC(=N)N)C(=O)N[C@@H](CCC(=O)O)C(=O)N[C@@H](CCCNC(=N)N)C(=O)N[C@@H](CCCCN)C(=O)N[C@@H](C)C(=O)NCC(=O)N[C@H]1CSSC[C@@H](C(=O)O)NC(=O)[C@H](CO)NC(=O)[C@H]([C@@H](C)O)NC(=O)[C@H](Cc2ccccc2)NC(=O)[C@H]([C@@H](C)O)NC(=O)[C@H](CCCCN)NC(=O)[C@H](Cc2c[nH]c3ccccc23)NC(=O)[C@H](Cc2ccccc2)NC(=O)[C@H](Cc2ccccc2)NC(=O)[C@H](CC(N)=O)NC(=O)[C@H](CCCCN)NC1=O", "note": "[somatostatin-25] (H-SNPAMAPRERKAGCKNFFWKTFTSC-OH; disulfide 14-25)", "values": [{"measurement": "activity versus somatostatin to inhibit growth hormone secretion stimulated by morphine", "setting": "[1]", "result": "much more active than somatostatin"}, {"measurement": "potency versus somatostatin in inhibiting the release of GH in vitro", "setting": "[2]", "result": "more potent than somatostatin"}]}, {"molecule": "CSCC[C@H](NC(=O)[C@H](C)NC(=O)[C@@H]1CCCN1C(=O)[C@H](CC(N)=O)NC(=O)[C@H](CO)NC(=O)[C@H](CC(N)=O)NC(=O)[C@H](C)NC(=O)[C@@H](N)CO)C(=O)N[C@@H](C)C(=O)N1CCC[C@H]1C(=O)N[C@@H](CCCNC(=N)N)C(=O)N[C@@H](CCC(=O)O)C(=O)N[C@@H](CCCNC(=N)N)C(=O)N[C@@H](CCCCN)C(=O)N[C@@H](C)C(=O)NCC(=O)N[C@H]1CSSC[C@@H](C(=O)O)NC(=O)[C@H](CO)NC(=O)[C@H]([C@@H](C)O)NC(=O)[C@H](Cc2ccccc2)NC(=O)[C@H]([C@@H](C)O)NC(=O)[C@H](CCCCN)NC(=O)[C@H](Cc2c[nH]c3ccccc23)NC(=O)[C@H](Cc2ccccc2)NC(=O)[C@H](Cc2ccccc2)NC(=O)[C@H](CC(N)=O)NC(=O)[C@H](CCCCN)NC1=O", "note": "[somatostatin-28]", "values": [{"measurement": "activity versus somatostatin to inhibit growth hormone secretion stimulated by morphine", "setting": "[1]", "result": "much more active than somatostatin"}, {"measurement": "potency versus somatostatin in inhibiting the release of GH in vitro", "setting": "[2]", "result": "more potent than somatostatin"}]}, {"molecule": "somatostatin: tetradecapeptide somatostatin characterized by Guillemin et al., U.S. Pat. No. 3,904,594 (H-AGCKNFFWKTFTSC-OH; disulfide 3-14; ends not checked; UniProt P61278 103-116, looked up)", "values": [{"measurement": "diminution of fasting hyperglycemia", "setting": "[3]", "result": "≤ 50", "unit": "%"}]}]}
